Columns and labels:
Shay ulcers = assay: Gastric ulcers provoked by tying of the pylorus (Shay ulcers); assay type: in vivo; conditions: intraduodenal; rat, 50mg/kg/i.d.; read-out: Percentage reduction of shay ulcers
Experimental: The derivatives of formula I, administered by oral means, reduce the extent of gastric ulcers provoked in a rat by tying of the pylorus (Shay ulcers)
Table IV indicated, by way of example, the results obtained by the administration of 50mg/kg/i.d. of different derivatives of formula I.

[1] = system: local oedema caused by sub-plantar injection of carraghenine; assay: Sub-plantar oedema caused by carraghenine (antiinflammatory); assay type: in vivo, rat; conditions: rat, read-out: Percentage reduction of subplantar oedema; for inhibition in vivo at 100 mg/kg: 100 mg/kg/PO
Excerpt: These properties are shown by a diminution of the local oedema caused by the sub-plantar injection of a phlogogenic agent, such as carraghenine, in the rat following the oral administration of derivatives of formula I.

[2] = Lethal doses / percentage mortality; assay type: in vivo; conditions: in vivo, mouse; for LD50: po, Table IX, read-out: DE 50 (second column; DL 50) (converted)
Excerpt: As a result of a comparison between the pharmacologically active doses mentioned above, and the lethal doses listed in the following table XIV, the difference between the doses is sufficiently great to permit the utilisation of the derivatives of formula I in therapeutics.

[3] = system: number of explorations in the escape enclosure; assay: Number of explorations in the escape enclosure (sedative properties); assay type: in vivo, mouse; conditions: po; mouse, escape enclosure, 100mg/kg/p.o.; read-out: Percentage diminution of number of explorations
volume of urine emitted = assay: Augmentation of urinary elimination (diuretic properties); assay type: in vivo; conditions: po; mouse, 25mg/kg/p.o., 6 hours; read-out: Percentage augmentation of urinary elimination
Experimental: The derivatives of formula I, administered by oral means to the mouse, simultaneously with a volume of 1ml of an isotonic solution of sodium chloride per 25g of the corporeal weight of the mouse, are capable of provoking an augmentation of the volume of urine emitted by reference to control animals, the volume being measured for 6 hours following administration.
The following Table VII indicates, by way of example the percentage augmentation of urinary elimination resulting from the administration of 25mg/kg/p.o. of different derivatives of formula I.

[4] = system: arterial pressure of anaesthetised rat; assay: Lowering of arterial pressure of anaesthetised rat (hypotensive properties); assay type: in vivo; conditions: 1 mg/kg/i.v.; for Duration of effect: hypotensive effect
Excerpt: Administered by intraveinous means to an anaesthetised rat, the derivatives of formula I provoke a lowering of the arterial pressure.
By way of example, the following Table VIII mentions the results obtained by administration of different derivatives of formula I.

[5] = system: painful stretchings caused by phenylbenzoquinone; assay: Analgesic test with phenylbenzoquinone (painful stretchings); assay type: in vivo; conditions: Mus musculus, po; for ED50: read-out: 105 DE (DE 50)
[6] = system: isolated heart of guinea-pig; assay: Augmentation of flow of coronary vessels of isolated heart (vasodilatatory); conditions: Cavia porcellus; 1 μg/ml; read-out: Percentage augmentation of flow of isolated heart of guinea-pig
Experimental: The derivatives of formula I are capable of augmenting the flow of the coronary vessels of this isolated heart of a guinea - pig, when said derivatives are added in the perfusion liquid of said organ.
The percentage augmentation of the flow of the isolated heart of the guinea - pig by adding different derivatives of formula I to the perfusion liquid are given by way of example in the following Table V.

[7] = read-out: Percentage of diminution of the number of painful stretchings

Compound | inhibition in vivo at 100 mg/kg [1] | mortality ([2]; 2000 mg/kg, 2 000 mg/kg/PO) | change in vivo at 25 mg/kg (volume of urine emitted) | further results
COc1cc(-c2nc(C)cc(Nc3ccccc3C(=O)OCC3COC(C)(C)O3)n2)cc(OC)c1OC (stereo not shown) [71 510] | 40% | 0% | – | inhibition in vivo at 50 mg/kg (Shay ulcers): 35%; inhibition in vivo at 100 mg/kg [3]: 40%
COc1cc(-c2nc(C)cc(Nc3ccc(C(=O)N4CCCC4)cc3)n2)cc(OC)c1OC [72 271, 2-(3',4',5'-trimethoxyphenyl)-4-(parapyrrolidinocarbonylphenylamino) -6-methyl pyrimidino] | 35% | 0% | – | inhibition in vivo at 100 mg/kg [3]: 40%
CCOC(=O)c1ccc(Nc2cc(C)nc(-c3ccc(Cl)cc3)n2)cc1 [72 283] | 40% | 0% | – | –
Cc1cc(Nc2ccc(C(=O)N3CCN(C)CC3)cc2)nc(-c2ccc(Cl)cc2)n1 [72 292] | – | 0% | 55% | –
COc1cc(-c2nc(C)cc(Nc3ccc(C(=O)N4CCCCC4)cc3)n2)cc(OC)c1OC [72 317] | 35% | 0% | – | inhibition in vivo at 50 mg/kg (Shay ulcers): 40%
Cc1cc(Nc2ccc(C(=O)N(C)C)cc2)nc(-c2ccc(Cl)cc2)n1 [72 327] | 35% | 0% | 85% | Percentage reduction of arterial pressure of anaesthetised rat [4]: 30%; Duration of effect [4]: 30 mn
COc1cc(-c2nc(C)cc(Nc3ccc(C(N)=O)cc3)n2)cc(OC)c1OC [72 417] | – | 0% | 65% | inhibition in vivo at 50 mg/kg (Shay ulcers): 40%
Cc1cc(Nc2ccc(C(N)=O)cc2)nc(-c2cccc(C(F)(F)F)c2)n1 [72 432] | 45% | 0% | 200% | inhibition in vivo at 50 mg/kg (Shay ulcers): 35%; inhibition in vivo at 100 mg/kg [3]: 35%
COc1cc(-c2nc(C)cc(Nc3ccccc3C(N)=O)n2)cc(OC)c1OC [72 442] | 55% | 0% | – | Percentage reduction of arterial pressure of anaesthetised rat [4]: 30%; Duration of effect [4]: 20 mn; inhibition in vivo at 100 mg/kg [3]: 60%; inhibition in vivo at 100 mg/kg [5, 7]: 70%
COc1cc(-c2nc(C)cc(Nc3ccc(C(=O)N4CCN(C)CC4)cc3)n2)cc(OC)c1OC [72 462] | 35% | 0% | – | inhibition in vivo at 100 mg/kg [5, 7]: 40%
Cc1cc(Nc2ccccc2C(=O)OCC2COC(C)(C)O2)nc(-c2cccc(C(F)(F)F)c2)n1 (stereo not shown) [72 495, N-[2-(3'trifluoromethylphenyl) -6-methyl-4-pyrimidyl](2",2" -dimethyldioxolan-4"-yl) methyl anthranilate] | – | 0% | 115% | –
CCOC(=O)c1ccc(Nc2cc(C)nc(-c3cccc(C(F)(F)F)c3)n2)cc1 [72 505] | – | 0% | – | activation at 1 µg/mL [6]: 50%
COc1cc(-c2nc(C)cc(Nc3ccc(C(=O)N4CCOCC4)cc3)n2)cc(OC)c1OC [72 536] | 35% | 0% | – | inhibition in vivo at 100 mg/kg [3]: 75%
Cc1cc(Nc2ccc(C(=O)N3CCOCC3)cc2)nc(-c2ccc3c(c2)OCO3)n1 [72 621] | – | ~30% | – | inhibition in vivo at 50 mg/kg (Shay ulcers): 40%
Cc1cc(Nc2ccc(C(=O)N3CCCC3)cc2)nc(-c2ccc3c(c2)OCO3)n1 [72 623] | – | 0% | 85% | –
Cc1cc(Nc2ccccc2C(=O)OCC(O)CO)nc(-c2ccc3c(c2)OCO3)n1 (stereo not shown) [72 686] | – | 0% | – | inhibition in vivo at 25 mg/kg ([1]; 25 mg/kg/PO): 35%; inhibition in vivo at 130 mg/kg [5, 7]: 50%
Cc1cc(Nc2ccc(C(=O)N3CCCCC3)cc2)nc(-c2ccc3c(c2)OCO3)n1 [72 687] | – | 0% | – | inhibition in vivo at 50 mg/kg (Shay ulcers): 40%

Compound | inhibition in vivo at 100 mg/kg [1] | mortality ([2]; 2000 mg/kg, 2 000 mg/kg/PO) | change in vivo at 25 mg/kg (volume of urine emitted) | further results
Cc1cc(Nc2ccccc2C(=O)OCC2COC(C)(C)O2)nc(-c2ccc3c(c2)OCO3)n1 (stereo not shown) [72 701] | – | 0% | 45% | inhibition in vivo at 100 mg/kg [5, 7]: 45%
Cc1cc(Nc2ccc(C(=O)N3CCOCC3)cc2)nc(-c2cccc(F)c2)n1 [72 754] | – | 0% | 50% | inhibition in vivo at 50 mg/kg (Shay ulcers): 40%
Cc1cc(Nc2ccc(C(N)=O)cc2)nc(-c2cccc(F)c2)n1 [72 773] | 40% | ~20% | 110% | inhibition in vivo at 50 mg/kg (Shay ulcers): 40%; inhibition in vivo at 100 mg/kg [3]: 45%
CCOC(=O)c1ccc(Nc2cc(C)nc(-c3cccc(F)c3)n2)cc1 [72 778] | – | 0% | – | inhibition in vivo at 100 mg/kg [3]: 35%
Cc1cc(Nc2ccccc2C(N)=O)nc(-c2cccc(F)c2)n1 [72 783] | – | 0% | 80% | –
Cc1cc(Nc2ccc(OCCN(C)C)cc2)nc(-c2ccccc2)n1 [730 136] | – | 0% | – | inhibition in vivo at 100 mg/kg [5, 7]: 46%
Cc1cc(Nc2ccc(OCCN3CCCCC3)cc2)nc(-c2ccccc2)n1 [730 221] | – | – | – | mortality ([2]; 520 mg/kg/PO): ~50%
Cc1cc(Nc2ccc(OCCN(C)C)cc2)nc(-c2cccc(F)c2)n1 [730 224] | – | 0% | – | LD50 [2]: > 2000 mg/kg; ED50 [5]: 30 mg/kg
Cc1cc(Nc2ccc(OCCN3CCCCC3)cc2)nc(-c2cccc(F)c2)n1 [730 231] | – | – | – | inhibition in vivo at 50 mg/kg (Shay ulcers): 50%; mortality ([2]; 975 mg/kg/PO): ~50%; LD50 [2]: 975 mg/kg; ED50 [5]: 27 mg/kg
Cc1cc(Nc2ccc(CC(=O)O)cc2)nc(-c2cccc(F)c2)n1 [730 234] | 35% | – | – | mortality ([2]; 2 400 mg/kg/PO): ~50%; inhibition in vivo at 100 mg/kg [5, 7]: 55%
Cc1cc(Nc2ccc(OCCN3CCCC3)cc2)nc(-c2cccc(C(F)(F)F)c2)n1 [730 243] | 50% | – | – | mortality ([2]; 1000 mg/kg, 1 000 mg/kg/PO): 0%
Cc1cc(Nc2ccc(OCCN3CCCCCC3)cc2)nc(-c2ccccc2)n1 [730 379] | – | – | – | mortality ([2]; 625 mg/kg/PO): ~50%
Cc1cc(Nc2ccc(OCCN3CCOCC3)cc2)nc(-c2cccc(Cl)c2)n1 [730 695] | – | 0% | 43% | inhibition in vivo at 100 mg/kg [5, 7]: 85%
Cc1cc(Nc2ccc(OCCN3CCOCC3)cc2)nc(-c2ccc3c(c2)OCO3)n1 [730 731] | – | 0% | 37% | Percentage reduction of arterial pressure of anaesthetised rat [4]: 29%; Duration of effect [4]: 30 mn; LD50 [2]: > 2000 mg/kg; ED50 [5]: 27 mg/kg
Cc1cc(Nc2ccc(OCCN3CCOCC3)cc2)nc(-c2ccc(Cl)cc2)n1 [730 732] | – | 0% | – | LD50 [2]: > 2000 mg/kg; ED50 [5]: 23 mg/kg
Cc1cc(Nc2ccc(OCCN3CCOCC3)cc2)nc(-c2ccc(N(C)C)cc2)n1 [740 140] | – | 0% | – | Percentage reduction of arterial pressure of anaesthetised rat [4]: 40%; Duration of effect [4]: 30 mn; LD50 [2]: > 2000 mg/kg; ED50 [5]: 33 mg/kg
